Experiment [1] relates to Influenza A/WSN/33 (H1N1) virus. The experiment in a line: In vitro anti-influenza virus assay (neutralization test), cytopathic effect on MDCK cells. Format: cell-based. To be noted: 72 h, read-out: IC50 (concentration reducing virus-induced cytopathic effect by 50%).
A further experiment deals with Enterovirus 71/4643/MP4. Description: In vitro EV 71 neutralization assay, cytopathic effect on RD cells. The following applies: Enterovirus A.
A further experiment concerns Coxsackie B virus 3. Description: In vitro Coxsackie Virus B3 neutralization assay, cytopathic effect on RD cells. (Damage to the host cells serves as the signal in cytopathic effect assays.)
In experiment [2] the test system is Influenza A/TW/70058/09 (H1N1). The experiment in a line: Anti-influenza neutralization test, various influenza virus strains. Format: cell-based.
Experiment [3] deals with Influenza A/TW/70066/09 (H1N1). The description is as above. Format: cell-based.
Another experiment has as its system Human rhinovirus 2. Description: In vitro human rhinovirus 2 neutralization assay, cytopathic effect on RD cells. The following applies: Rhinovirus A.
The subject of experiment [4] is Influenza A/TW/355/97 (H1N1). Description: Anti-influenza neutralization test, various influenza virus strains. Format: cell-based.
The subject of experiment [5] is Influenza A/TW/147/09 (H1N1). The description is as above. Format: cell-based.
Another experiment has as its system HIV-1. The experiment in a line: microbe, parasite or virus in culture. The following applies: Human immunodeficiency virus 1, PBMC.
Where [6] appears, read: Influenza A/WSN/33 (H1N1), MDCK cells.
Setting [7] is: Influenza A/WSN/33 (H1N1), MDCK cells, lower bound in nM, upper bound in μM.
Where [8] appears, read: 72 h, read-out: Inhibition (%) Day 3.
The mark [9] stands for this setting: 120 h, read-out: Inhibition (%) Day 5.
The mark [10] stands for this setting: 168 h, read-out: Inhibition (%) Day 7.

Like-named read-outs stand apart in the source and are kept apart here. A value given as a limit tells only on which side of the number the result lay.

Experimental for Coxsackie B virus 3: (§1) This assay measured the ability of a test compound to inhibit the cytopathic effect induced by a picornavirus (EV71, Coxsackie Virus B3, or human rhinovirus 2) on RD cells. […] More specifically, 96-well tissue culture plates were seeded with 200 μL of RD cells at a concentration of 3×10^5 cells/mL in DMEM with 10% FBS. The plates were incubated for 24-30 h at 37° C. and were used at about 90% confluency. Virus (100 TCID50) mixed with different concentrations of a test compound was added to the cells and incubated at 37° C. for 1 h. After adsorption, the infected cell plates were overlaid with 50 μL of DMEM plus 5% FBS and 2% DMSO. The plate was wrapped in Parafilm and incubated at 37° C. for 64 h. At the end of incubation, the plates were fixed by the addition of 100 μL of 0.5% glutaraldehyde for 1 h at room temperature. After the removal of glutaraldehyde, the plates were stained with 0.1% crystal violet for 15 min at room temperature. The plates were washed and dried, and the density of the well was measured at 570 nm. The concentration required for a test compound to reduce the virus-induced cytopathic effect (CPE) by 50% relative to the virus control is expressed as IC50.
Experimental for Enterovirus 71/4643/MP4: as §1
Experimental for HIV-1: Equal amounts of wild-type and mutant viruses were used to infect 5×10^4 peripheral blood mononuclear cells (PBMC) in 1.5 mL medium containing DMSO or various concentrations of a test compound. A half-milliliter of the culture medium was collected from each culture at days 3, 5, and 7. Viral RNA was extracted from the collected culture supernatants and the viral titers (copies/mL) were determined by real-time PCR. The percentage of inhibition was calculated as [100−(VD/VC)]×100%, where VD and VC refer to the virus titers in the presence and absence of the test compound, respectively.
Experimental for Human rhinovirus 2: as §1

`Cc1c(-c2cc(C(=O)O)c3cc(Br)ccc3n2)cnn1-c1cc(Cl)ccc1Cl` [Compound 39]: the IC50 in [1] (setting [6]) was in the range of 6000 to 25000 nM. For `Cc1ccc(C)c(-n2ncc(-c3cc(C(=O)O)c4cc(I)ccc4n3)c2C)c1` [Compound 60], the IC50 in [1] (setting [7]) fell in the range of 10 to 999 nM. As to `COc1ccc(-n2ncc(-c3cc(C(=O)O)c4cc(Br)ccc4n3)c2C)cc1` [Compound 7], the IC50 in experiment [1] (setting [6]) lay in the range of 1000 to 5900 nM. For `Cc1cccc(C)c1-n1ncc(-c2cc(C(=O)O)c3cc(Br)ccc3n2)c1C` [Compound 36], the IC50 in experiment [1] (setting [6]) was 1000 to 5900 nM. On to `Cc1c(-c2cc(C(=O)O)c3cc(Br)ccc3n2)cnn1-c1cc(Cl)cc(Cl)c1` [Compound 57], for which the IC50 in experiment [1] (setting [6]) fell in the range of 1000 to 5900 nM.

Consider `Cc1cc(-c2cc(C(=O)O)c3cc(Br)ccc3n2)nn1-c1ccc2ccccc2n1` [Compound 75], for which the IC50 in experiment [1] (setting [6]) is 1000 to 5900 nM. Consider `Cc1c(-c2cc(C(=O)O)c3cc(Br)ccc3n2)cnn1-c1cccc(F)c1` [Compound 11], for which, in experiment [1] (setting [6]), the IC50 is 1000 to 5900 nM. In the case of `Cc1c(-c2cc(C(=O)O)c3cc(Br)ccc3n2)noc1-c1ccccc1` [Compound 49], the IC50 in experiment [1] (setting [6]) lay in the range of 1000 to 5900 nM. `NC12CC3CC(CC(C3)C1)C2` [Amantadine]: the IC50 with Enterovirus 71/4643/MP4 was greater than 25 µM; in the experiment with Coxsackie B virus 3 it was greater than 25 µM; in experiment [2], 0.762 ± 0.28 µM; in [3] it was 0.96 ± 0.317 µM; with Human rhinovirus 2 it was greater than 25 µM; in experiment [4] it was 12.6 ± 6.93 µM. In [5], the IC50 came out at 1.47 ± 0.603 µM. In the case of `Cc1c(-c2cc(C(=O)O)c3cc(Br)ccc3n2)cnn1-c1ccc(F)c(F)c1` [Compound 6], the IC50 in [1] (setting [6]) is 1000 to 5900 nM.

Turning to `Cc1c(-c2cc(C(=O)O)c3cc(Br)ccc3n2)cnn1-c1cc(F)ccc1F` [Compound 40], the IC50 in experiment [1] (setting [6]) was 6000 to 25000 nM.

For the molecule `Cc1c(-c2cc(C(=O)O)c3cc(Br)ccc3n2)cnn1-c1ccc(Cl)cc1` [Compound 12], in [1] (setting [6]), the IC50 fell in the range of 1000 to 5900 nM. The same measure, in the same setting: the same measure for `Cc1ccc(C)c(-n2ncc(-c3cc(C(=O)O)c4cc(Br)cc(C)c4n3)c2C)c1` [Compound 59]: 1000 to 5900 nM; for `Cc1cc(C(F)(F)F)cc(-n2nc(-c3cc(C(=O)O)c4cc(Br)ccc4n3)cc2C)n1` [Compound 74]: 1000 to 5900 nM. Still for that read-out and setting: the same measure for `CCc1ccccc1-n1ncc(-c2cc(C(=O)O)c3cc(Br)ccc3n2)c1C` [Compound 38]: 1000 to 5900 nM. For `Cc1cccc(-n2ncc(-c3cc(C(=O)O)c4cc(Br)ccc4n3)c2C)c1C` [Compound 30], in experiment [1] (setting [7]), the IC50 fell in the range of 10 to 999 nM. Take `Cc1c(-c2cc(C(=O)O)c3cc(Br)ccc3n2)cnn1-c1ccc(C(F)(F)F)cc1` [Compound 23]: the IC50 in [1] (setting [6]) is 1000 to 5900 nM. Take `Cc1ccc(Cl)cc1-n1ncc(-c2cc(C(=O)O)c3cc(Br)ccc3n2)c1C` [Compound 31]: the IC50 in experiment [1] (setting [7]) was in the range of 10 to 999 nM. In the case of `Cc1c(-c2cc(C(=O)O)c3cc(Br)ccc3n2)cnn1-c1cccc(Cl)c1` [Compound 25], the IC50 in experiment [1] (MDCK) lay in the range of 10 to 999 nM.

Turning to `Cc1c(-c2cc(C(=O)O)c3cc(Br)ccc3n2)cnn1-c1ccc(F)cc1F` [Compound 21], in experiment [1] (setting [6]), the IC50 fell in the range of 1000 to 5900 nM. Consider `Cc1nc(-c2ccccc2)sc1-c1cc(C(=O)O)c2cc(Br)ccc2n1` [Compound 46], for which, in experiment [1] (setting [6]), the IC50 fell in the range of 1000 to 5900 nM. Regarding `Cc1c(-c2cc(C(=O)O)c3cc(Br)ccc3n2)cnn1-c1ccc(Cl)cc1Cl` [Compound 27], the IC50 in experiment [1] (MDCK) fell in the range of 10 to 999 nM. Take `Cc1c(-c2cc(C(=O)O)c3cc(Br)ccc3n2)cnn1-c1ccc([N+](=O)[O-])cc1` [Compound 16]: in [1] (setting [6]), the IC50 is 1000 to 5900 nM. On to `Cc1ccc(Cl)cc1-n1ncc(-c2cc(C(=O)O)c3cc(Cl)ccc3n2)c1C` [Compound 34], for which the IC50 in [1] (setting [7]) was 10 to 999 nM. On to `Cc1cc(C)c(-n2ncc(-c3cc(C(=O)O)c4cc(Br)ccc4n3)c2C)c(C)c1` [Compound 37], for which the IC50 in [1] (setting [6]) is 1000 to 5900 nM. In the case of `Cc1c(-c2cc(C(=O)O)c3cc(Br)ccc3n2)ncn1-c1ccccc1` [Compound 51], the IC50 in experiment [1] (setting [7]) was 10 to 999 nM. On to `Cn1c(-c2ccccc2)ccc1-c1cc(C(=O)O)c2cc(Br)ccc2n1` [Compound 47], for which the IC50 in experiment [1] (setting [7]) lay in the range of 10 to 999 nM. As for `Cc1ccccc1-n1ncc(-c2cc(C(=O)O)c3cc(Br)ccc3n2)c1C` [Compound 17], the IC50 in experiment [1] (setting [7]) was in the range of 10 to 999 nM. `O=C(O)c1cc(-c2cnn(-c3ccccc3)c2)nc2ccc(Br)cc12` [Compound 43]: in experiment [1] (setting [6]), the IC50 lay in the range of 6000 to 25000 nM. As to `Cc1cccc(-n2ncc(-c3cc(C(=O)O)c4cc(Br)ccc4n3)c2C)c1` [Compound 26], in [1] (MDCK), the IC50 lay in the range of 10 to 999 nM. `Cc1c(-c2cc(C(=O)O)c3cc(Br)ccc3n2)cnn1-c1c(Cl)cc(Cl)cc1Cl` [Compound 42]: in experiment [1] (setting [6]), the IC50 lay in the range of 1000 to 5900 nM. Still for that read-out and setting: the same measure for `O=C(O)c1cc(-c2cc(-c3ccccc3)no2)nc2ccc(Br)cc12` [Compound 19]: 1000 to 5900 nM. As for `Cc1ccc(-n2ncc(-c3cc(C(=O)O)c4cc(Br)ccc4n3)c2C)c(C)c1` [Compound 5], the IC50 in experiment [1] (setting [7]) was in the range of 10 to 999 nM. Turning to `Cc1c(-c2cc(C(=O)O)c3cc(Br)ccc3n2)cnn1-c1ccc(Br)cc1` [Compound 20], the IC50 in experiment [1] (setting [7]) was in the range of 10 to 999 nM. Regarding `COc1cccc(-n2ncc(-c3cc(C(=O)O)c4cc(Br)ccc4n3)c2C)c1` [Compound 18], in experiment [1] (setting [6]), the IC50 is 1000 to 5900 nM. The same measure, in the same setting: the same measure for `Cc1cc(-c2cc(C(=O)O)c3cc(Br)ccc3n2)nn1-c1nc2ccccc2s1` [Compound 73]: 1000 to 5900 nM.

What is called inhibition is the change of the read-out against control, counted positive when it falls. As for `Cc1cc(Cl)ccc1-n1ncc(-c2cc(C(=O)O)c3cc(Br)ccc3n2)c1C` [Compound 14], the inhibition at 10 µM in the experiment with HIV-1 (setting [8]) amounted to 20%; with HIV-1 (setting [9]), 59%; in the experiment on HIV-1 (setting [10]) it was 86%. Besides, the inhibition at 0.01 µM in the experiment on HIV-1 (setting [9]) is 48%. Further, the IC50 in [1] (setting [7]) fell in the range of 10 to 999 nM.

With `Cc1c(-c2cc(C(=O)O)c3cc(Br)ccc3n2)cnn1-c1ccccc1F` [Compound 24], the IC50 in experiment [1] (MDCK) was in the range of 10 to 999 nM.

As to `Cc1c(-c2cc(C(=O)O)c3cc(Cl)ccc3n2)cnn1-c1ccccc1` [Compound 4], in [1] (setting [7]), the IC50 was in the range of 10 to 999 nM. With `Cc1ccc(C)c(-n2ncc(-c3cc(C(=O)O)c4cc(F)ccc4n3)c2C)c1` [Compound 50], in experiment [1] (setting [6]), the IC50 lay in the range of 1000 to 5900 nM. Same read-out and setting: the same measure for `Cc1c(-c2ccccc2)cccc1-c1cc(C(=O)O)c2cc(Br)ccc2n1` [Compound 76]: 1000 to 5900 nM. With `Cc1c(-c2cc(C(=O)O)c3cc(Br)ccc3n2)cnn1-c1ccc(C(C)C)cc1` [Compound 13], the IC50 in experiment [1] (setting [7]) lay in the range of 10 to 999 nM. For the molecule `Cc1c(-c2cc(C(=O)O)c3cc(Br)ccc3n2)ccn1-c1ccccc1` [Compound 48], in experiment [1] (setting [6]), the IC50 lay within 1000 to 5900 nM. Take `Cc1cn([C@H]2C[C@H](N=[N+]=[N-])[C@@H](CO)O2)c(=O)[nH]c1=O` [AZT, zidovudine, reference compound]: the inhibition at 0.04 µM in the experiment on HIV-1 (setting [8]) is 30%; with HIV-1 (setting [9]), 60%; with HIV-1 (setting [10]) it was 67%. In the case of `Cc1ccc(C)c(-n2ncc(-c3cc(C(=O)O)c4cc(Cl)ccc4n3)c2C)c1` [Compound 33], the IC50 in experiment [1] (setting [7]) lay in the range of 10 to 999 nM. As to `Cc1c(-c2cc(C(=O)O)c3cc(Br)ccc3n2)cnn1-c1ccc(Cl)c(Cl)c1` [Compound 8], in experiment [1] (setting [6]), the IC50 was 1000 to 5900 nM. Same read-out and setting: the same measure for `Cc1c(-c2cc(C(=O)O)c3cc(Br)ccc3n2)cnn1-c1c(Cl)cccc1Cl` [Compound 41]: 6000 to 25000 nM. For the molecule `Cc1ccc(C)c(-n2ncc(-c3cc(C(=O)O)c4cc(Br)cc(Br)c4n3)c2C)c1` [Compound 58], the IC50 in experiment [1] (setting [6]) lay in the range of 1000 to 5900 nM. In the case of `Cc1c(-c2cc(C(=O)O)c3cc(Br)ccc3n2)cnn1-c1ccc(F)cc1` [Compound 10], in experiment [1] (setting [7]), the IC50 lay in the range of 10 to 999 nM.

For `CC(=O)N[C@H]1[C@H]([C@H](O)[C@H](O)CO)OC(C(=O)O)=C[C@@H]1N=C(N)N` [Relenza, Zanamivir], the IC50 in the experiment with Enterovirus 71/4643/MP4 was greater than 25 µM; with Coxsackie B virus 3, greater than 25 µM; in experiment [2], 0.86 ± 0.36 µM; in experiment [3], 0.809 ± 0.15 µM; in the experiment with Human rhinovirus 2, greater than 25 µM; in experiment [4] it was 1.05 ± 0.458 µM. Besides, the IC50 in experiment [5] came out at 22.5 ± 3.47 µM. Consider `Cc1c(-c2cc(C(=O)O)c3cc(F)ccc3n2)cnn1-c1ccccc1` [Compound 3], for which the IC50 in [1] (setting [6]) was 1000 to 5900 nM. For the molecule `CCCc1cccc(-n2ncc(-c3cc(C(=O)O)c4cc(Br)ccc4n3)c2C)c1` [Compound 22], in experiment [1] (setting [7]), the IC50 was 10 to 999 nM. Same read-out and setting: the same measure for `Cc1cc(C)cc(-n2ncc(-c3cc(C(=O)O)c4cc(Br)ccc4n3)c2C)c1` [Compound 15]: 10 to 999 nM. With `Cc1c(-c2cc(C(=O)O)c3cc(Br)ccc3n2)cnn1-c1cccc([N+](=O)[O-])c1` [Compound 29], the IC50 in experiment [1] (setting [6]) fell in the range of 6000 to 25000 nM. As for `Cc1ccc(-n2ncc(-c3cc(C(=O)O)c4cc(Br)ccc4n3)c2C)cc1` [Compound 9], the IC50 in [1] (setting [7]) was in the range of 10 to 999 nM.

Source of the values: patent publication US8710079B2, “Quinoline compounds and their use for treating viral infection” (National Health Research Institutes, priority 2010, dated 2014).
